From patent US9284345B2 (priority 2007, dated 2016)
Several values for one entry are separate records, joined by “and”; a condition that tells them apart may be missing. Identical values can stand only once.

Columns and labels:
androgen receptor = experiment: Antiandrogen / SARM / androgen profile observed on structural change; settings: structure-activity observation in estratriene derivatives
Text: Preferred positions on the steroid to this change in activities are 3, 4, 11β, 16 and 17α. […] Moreover, when we changed the 4-fluoro by a 4-chloro on EM-6583, we obtained a pure androgen (EM-5697). Similarly, when we increased the size of the chain at 17α-position on (1,4-phenylene as a spacer group), EM-8419 became a SARM. Again, when we changed the 4-fluoro by a 4-chloro on EM-8419, we obtained a pure androgen (EM-5313).
We also believed that a larger size increase could reverse the observed tendency (androgen to SARM or antiandrogen). Thus, it is not obvious to make good predictions of the biological activity of this compound family but some trends are observable.

[1] = test system: Shionogi mouse mammary carcinoma cells; experiment: cells; format: cell-based; settings: for % of inh of DHT at 10^−7 M (Basal = 100%): 0.0003 µM; for inhibition at 0.0003 µM: Mus musculus, read-out: % of inh of DHT at 10^−7 M (Basal = 100%); for Ki: read-out: Shionogi cells Antiandrogenic activity Ki
Immature Rat CX = settings: for In Vivo Agonist % Change vs CX (DHT = +100%) SV / In Vivo Agonist % Change vs CX (DHT = +100%) VP: po
Immature Rat CX + DHT = experiment: animal or person; format: in vivo; settings: rat, in vivo
Human Androgen Receptor = molecular target: T1, Human Androgen Receptor (Homo sapiens, UniProt P10275); format: binding
T1 construct: expressed in transfected cells; host or cells: HEK-293 cells stably transfected with the pCMVneo-hAR plasmid (G-418 selection); cytosol used
T1 sequence (P10275 1-920): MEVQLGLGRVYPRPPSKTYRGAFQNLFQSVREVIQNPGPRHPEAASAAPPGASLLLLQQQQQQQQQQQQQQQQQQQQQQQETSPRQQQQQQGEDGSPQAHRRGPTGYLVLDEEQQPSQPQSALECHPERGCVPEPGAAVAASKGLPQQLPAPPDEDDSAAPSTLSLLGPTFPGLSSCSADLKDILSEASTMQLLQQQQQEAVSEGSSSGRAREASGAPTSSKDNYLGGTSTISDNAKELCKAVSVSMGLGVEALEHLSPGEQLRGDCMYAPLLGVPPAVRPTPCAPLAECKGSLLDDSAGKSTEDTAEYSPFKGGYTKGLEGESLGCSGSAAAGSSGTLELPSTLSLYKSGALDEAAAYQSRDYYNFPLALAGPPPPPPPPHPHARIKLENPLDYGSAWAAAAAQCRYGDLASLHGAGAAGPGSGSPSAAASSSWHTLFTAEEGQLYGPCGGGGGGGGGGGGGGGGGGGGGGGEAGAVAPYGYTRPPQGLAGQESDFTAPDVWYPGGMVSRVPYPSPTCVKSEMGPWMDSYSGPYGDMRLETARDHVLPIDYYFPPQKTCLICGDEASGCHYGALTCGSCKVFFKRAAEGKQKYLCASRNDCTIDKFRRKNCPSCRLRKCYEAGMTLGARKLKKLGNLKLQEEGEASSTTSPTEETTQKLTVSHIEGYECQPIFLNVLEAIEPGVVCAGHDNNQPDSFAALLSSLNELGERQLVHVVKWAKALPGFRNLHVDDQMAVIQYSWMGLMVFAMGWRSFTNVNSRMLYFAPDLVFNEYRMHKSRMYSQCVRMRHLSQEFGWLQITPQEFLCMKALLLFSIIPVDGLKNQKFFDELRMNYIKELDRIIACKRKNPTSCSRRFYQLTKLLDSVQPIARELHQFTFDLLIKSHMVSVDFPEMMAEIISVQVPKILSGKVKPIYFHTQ

Intact Rat = experiment: In vivo activity in intact rat (organ and muscle weight)
Rat Androgen Receptor = molecular target: T2, Rat Androgen Receptor (Rattus norvegicus, UniProt P15207); experiment: Androgen receptor binding assay (HAP, [3H]R1881), rat prostate cytosol
T2 construct: ventral prostates collected from 24 h-gonadectomized rats were homogenized in buffer A; from tissue; host or cells: rat ventral prostate cytosol (24 h-gonadectomized rats)
T2 sequence (P15207 1-902): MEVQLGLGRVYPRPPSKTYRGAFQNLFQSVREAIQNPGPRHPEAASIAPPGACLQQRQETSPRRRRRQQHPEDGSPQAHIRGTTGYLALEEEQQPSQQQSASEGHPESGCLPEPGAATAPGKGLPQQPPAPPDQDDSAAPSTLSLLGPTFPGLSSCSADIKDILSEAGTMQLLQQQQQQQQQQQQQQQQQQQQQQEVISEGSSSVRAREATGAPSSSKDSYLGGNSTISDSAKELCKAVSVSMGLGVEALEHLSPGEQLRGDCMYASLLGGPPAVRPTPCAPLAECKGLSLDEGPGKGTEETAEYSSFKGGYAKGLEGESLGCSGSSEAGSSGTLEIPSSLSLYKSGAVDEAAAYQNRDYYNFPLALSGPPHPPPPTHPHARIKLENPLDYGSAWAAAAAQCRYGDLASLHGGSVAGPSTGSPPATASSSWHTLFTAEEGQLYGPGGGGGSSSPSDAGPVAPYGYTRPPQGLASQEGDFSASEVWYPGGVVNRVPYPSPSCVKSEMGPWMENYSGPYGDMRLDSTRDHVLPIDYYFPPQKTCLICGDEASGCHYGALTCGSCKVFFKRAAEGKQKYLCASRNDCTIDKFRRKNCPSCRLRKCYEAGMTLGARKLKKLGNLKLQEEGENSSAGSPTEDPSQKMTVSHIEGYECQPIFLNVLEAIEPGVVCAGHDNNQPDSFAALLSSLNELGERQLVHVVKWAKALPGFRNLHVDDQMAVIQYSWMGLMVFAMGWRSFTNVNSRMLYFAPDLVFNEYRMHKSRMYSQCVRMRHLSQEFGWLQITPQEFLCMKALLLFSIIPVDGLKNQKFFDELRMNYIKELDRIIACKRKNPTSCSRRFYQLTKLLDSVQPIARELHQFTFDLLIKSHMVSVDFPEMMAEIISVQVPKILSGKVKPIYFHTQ
Procedure: On the morning of the binding assay, ventral prostates collected from 24 h-gonadectomized rats were homogenized in buffer A (1 g of tissue in 5 mL) and the homogenate was centrifuged as described above.
Androgen binding is measured using the hydroxylapatite (HAP) assay. In brief, the radioactive steroid [^3H]R1881 solubilized in ethanol is diluted with buffer B (10 mM Tris-HCl, 1.5 mM EDTA disodium salt, 10 mM α-monothioglycerol, pH 7.4). Aliquots of the cell or prostate cytosol preparation (0.1 ml) are then incubated with 5 nM [^3H]R1881 (0.1 ml, ˜100 000 cpm) in the presence or absence of the indicated concentrations of unlabeled compounds (0.1 ml, prepared in buffer B containing 30% ethanol) for 16-18 h at 0-4° C. Triamcinolone acetonide (TAC; 100 nM) is added to mask progesterone receptors. Unbound steroids are separated by incubation for 40 min at 0-4° C. with 0.3 ml HAP prepared in buffer P (50 mM Tris-HCl, 10 mM KH2PO4, pH 7.4). After incubation with HAP and 10 min of centrifugation at 1000×g, the pellet is washed 3 times with 1 ml of buffer P. Thereafter, the radioactivity is extracted from the pellet by incubation at room temperature for 60 min with 1 ml of ethanol. After centrifugation, the supernatant is decanted into a scintillation vial and the pellet is extracted again with ethanol. After the addition of scintillation liquid, the radioactivity is measured in a liquid scintillation counter.

[2] = 0.1 mg/rat/os/ID, bulbocavernosus muscles weight
[3] = 0.1 mg/rat/os/ID, prostate weight

| Structure (SMILES) | activity profile (antiandrogen, SARM or androgen) (androgen receptor) | % of stim of basal at 10^−7M (% over basal) [1] | % of stim of basal at 10^−7 M (DHT = 100%) [1] | In Vivo Agonist Rat CX % change vs CX (DHT CONT = +100%) Bulbo (Immature Rat CX) | In Vivo Agonist Rat CX % change vs CX (DHT CONT = +100%) SV (Immature Rat CX) | In Vivo Agonist Rat CX % change vs CX (DHT CONT = +100%) VP (Immature Rat CX) | In Vivo Anti-A Rat CX + DHT % change vs DHT (CX CONT = −100%) SV (Immature Rat CX + DHT; po) | In Vivo Anti-A Rat CX + DHT % change vs DHT (CX CONT = −100%) VP (Immature Rat CX + DHT; po) | Human Androgen Receptor Binding RBA (%) R1881 = 100% (Human Androgen Receptor) | In Vivo Intact Rat % change vs Intact CONT (Intact CONT = +100%; CX CONT = 0%) SZ (Intact Rat; rat, in vivo) | Shionogi cells Antiandrogenic activity Ki OH-Flu/Ki compound [1] | Ki [1] | Rat Androgen Receptor Binding RBA (%) R1881 = 100% (Rat Androgen Receptor) | other results |
| --- | --- | --- | --- | --- | --- | --- | --- | --- | --- | --- | --- | --- | --- | --- |
| CC1CC2(C)C(CCC2(O)Cc2cc[n+]([O-])cc2)C2CCc3c(ccc(C#N)c3Cl)C12 (stereo not shown) [EM-5697] | pure androgen | – | – | – | – | – | – | – | – | – | – | – | – | – |
| CC1CC2(C)C(CCC2(O)Cc2cc[n+]([O-])cc2F)C2CCc3c(ccc(C#N)c3F)C12 (stereo not shown) [EM-6595] | – | +117 ± 11% | +43 ± 13% | +97 ± 9% | +14 ± 1% | +28 ± 3% | [−74 ± 3] % | [−56 ± 5] % | 13% | +40 ± 3% | – | – | – | % of inh of DHT at 10^−7 M (Basal = 100%) [1]: −58 ± 13%; In Vivo Intact Rat % change vs Intact CONT (Intact CONT = +100%; CX CONT = 0%) Bulbo (Intact Rat; rat, in vivo): +162 ± 9%; In Vivo Intact Rat % change vs Intact CONT (Intact CONT = +100%; CX CONT = 0%) VP (Intact Rat; rat, in vivo): +67 ± 10% |
| C[C@]12CCC3c4ccc(C#N)c(Cl)c4CCC3C1CC[C@@]2(O)Cc1ccc(-c2ccc[n+]([O-])c2)cc1 (stereo partly shown) [EM-5313] | pure androgen | – | – | – | – | – | – | – | – | – | – | – | – | – |
| C[C@H]1C[C@@]2(C)C(CC[C@@]2(O)Cc2ccncc2)C2CCc3c(ccc(C#N)c3F)C21 (stereo partly shown) [EM-6582] | – | +145 ± 78% | +41 ± 22% | +71 ± 15% | +18 ± 3% | +37 ± 3% | −60 ± 6% | −36 ± 1% | 331% | +49 ± 5% | – | – | – | % of inh of DHT at 10^−7 M (Basal = 100%) [1]: +59 ± 22%; In Vivo Intact Rat % change vs Intact CONT (Intact CONT = +100%; CX CONT = 0%) Bulbo (Intact Rat; rat, in vivo): +197 ± 29%; In Vivo Intact Rat % change vs Intact CONT (Intact CONT = +100%; CX CONT = 0%) VP (Intact Rat; rat, in vivo): +72 ± 6% |
| C[C@H]1C[C@@]2(C)C(CC[C@@]2(O)Cc2cc[n+]([O-])cc2)C2CCc3c(ccc(C#N)c3F)C21 (stereo partly shown) [EM-6583] | became a SARM | +138 ± 49% | +52 ± 27% | +93 ± 15% | +17 ± 3% | +37 ± 7% | −75 ± 5% | −46 ± 6% | 21% | +71 ± 16% | – | – | – | inhibition at 0.0003 µM [1]: 46%; In Vivo Intact Rat % change vs Intact CONT (Intact CONT = +100%; CX CONT = 0%) Bulbo (Intact Rat; [2]): +145 ± 46%; In Vivo Intact Rat % change vs Intact CONT (Intact CONT = +100%; CX CONT = 0%) VP (Intact Rat; [3]): +90 ± 2% |
| Cc1c[n+]([O-])ccc1CC1(O)CCC2C3CCc4c(ccc(C#N)c4F)C3CCC21C (stereo not shown) [EM-8505] | – | – | – | – | – | – | – | – | ~0.3% | – | 4.4 | 4.2 nM | ~0.3% | – |
| CC[C@H]1C[C@@]2(C)C(CC[C@@]2(O)Cc2ccncc2F)C2CCc3c(ccc(C#N)c3F)C21 (stereo partly shown) [EM-9016] | – | +45% | +39% | +66 ± 25% | +17 ± 1% | +13 ± 2% | −39 ± 5% | −44 ± 3% | 2250% and 2250 ± 570% | +44 ± 6% | – | – | – | inhibition at 0.0003 µM [1]: 46%; In Vivo Anti-A Rat CX + DHT % change vs DHT (CX CONT = −100%) Bulbo (Immature Rat CX + DHT; po): +10 ± 9%; In Vivo Intact Rat % change vs Intact CONT (Intact CONT = +100%; CX CONT = 0%) Bulbo (Intact Rat; [2]): +108 ± 21%; In Vivo Intact Rat % change vs Intact CONT (Intact CONT = +100%; CX CONT = 0%) VP (Intact Rat; [3]): +53 ± 6% |
| CC12CCC3c4ccc(C#N)c(F)c4CCC3C1CCC2(O)Cc1cc[n+]([O-])cc1F (stereo not shown) [EM-8454] | – | – | – | – | – | – | – | – | ~1% | – | 2.7 | 2.2 nM | ~0.3% | In Vivo Agonist % Change vs CX (DHT = +100%) SV (Immature Rat CX): 0%; In Vivo Agonist % Change vs CX (DHT = +100%) VP (Immature Rat CX): 0% |
| Cc1c(C#N)ccc2c1CCC1C2CCC2(C)C1CCC2(O)Cc1cc[n+]([O-])cc1 (stereo not shown) [EM-5985] | – | – | – | – | – | – | – | – | 2.0 ± 0.3% | – | 12 and 12 ± 4 | 0.9 ± 0.2 nM | 0.6% | activity on the basal level of Shionogi cell proliferation [1]: none of these compounds has any activity; In Vivo Agonist % Change vs CX (DHT = +100%) SV (Immature Rat CX): [0] %; In Vivo Agonist % Change vs CX (DHT = +100%) VP (Immature Rat CX): [0] %; inhibition of DHT-stimulated seminal vesicle weight (Immature Rat CX + DHT): 84%; inhibition of DHT-stimulated ventral prostate weight (Immature Rat CX + DHT): 69%; potency on rat androgen-sensitive parameters relative to currently available antiandrogens (Immature Rat CX + DHT): approximately 5 times; affinity for the human compared to the rat androgen receptor (Human Androgen Receptor): approximately 3 fold |
